From patent publication EP4667458A1 (Kanaph Therapeutics Inc., priority 2023, dated 2024)

The molecules below were run against T1, KRAS^G12C::SOS1 (Homo sapiens, UniProt Q07889) (assay: KRAS G12C::SOS1 protein-protein interaction (PPI) inhibition assay (HTRF binding kit)).
T1 sequence (Q07889 1-1333): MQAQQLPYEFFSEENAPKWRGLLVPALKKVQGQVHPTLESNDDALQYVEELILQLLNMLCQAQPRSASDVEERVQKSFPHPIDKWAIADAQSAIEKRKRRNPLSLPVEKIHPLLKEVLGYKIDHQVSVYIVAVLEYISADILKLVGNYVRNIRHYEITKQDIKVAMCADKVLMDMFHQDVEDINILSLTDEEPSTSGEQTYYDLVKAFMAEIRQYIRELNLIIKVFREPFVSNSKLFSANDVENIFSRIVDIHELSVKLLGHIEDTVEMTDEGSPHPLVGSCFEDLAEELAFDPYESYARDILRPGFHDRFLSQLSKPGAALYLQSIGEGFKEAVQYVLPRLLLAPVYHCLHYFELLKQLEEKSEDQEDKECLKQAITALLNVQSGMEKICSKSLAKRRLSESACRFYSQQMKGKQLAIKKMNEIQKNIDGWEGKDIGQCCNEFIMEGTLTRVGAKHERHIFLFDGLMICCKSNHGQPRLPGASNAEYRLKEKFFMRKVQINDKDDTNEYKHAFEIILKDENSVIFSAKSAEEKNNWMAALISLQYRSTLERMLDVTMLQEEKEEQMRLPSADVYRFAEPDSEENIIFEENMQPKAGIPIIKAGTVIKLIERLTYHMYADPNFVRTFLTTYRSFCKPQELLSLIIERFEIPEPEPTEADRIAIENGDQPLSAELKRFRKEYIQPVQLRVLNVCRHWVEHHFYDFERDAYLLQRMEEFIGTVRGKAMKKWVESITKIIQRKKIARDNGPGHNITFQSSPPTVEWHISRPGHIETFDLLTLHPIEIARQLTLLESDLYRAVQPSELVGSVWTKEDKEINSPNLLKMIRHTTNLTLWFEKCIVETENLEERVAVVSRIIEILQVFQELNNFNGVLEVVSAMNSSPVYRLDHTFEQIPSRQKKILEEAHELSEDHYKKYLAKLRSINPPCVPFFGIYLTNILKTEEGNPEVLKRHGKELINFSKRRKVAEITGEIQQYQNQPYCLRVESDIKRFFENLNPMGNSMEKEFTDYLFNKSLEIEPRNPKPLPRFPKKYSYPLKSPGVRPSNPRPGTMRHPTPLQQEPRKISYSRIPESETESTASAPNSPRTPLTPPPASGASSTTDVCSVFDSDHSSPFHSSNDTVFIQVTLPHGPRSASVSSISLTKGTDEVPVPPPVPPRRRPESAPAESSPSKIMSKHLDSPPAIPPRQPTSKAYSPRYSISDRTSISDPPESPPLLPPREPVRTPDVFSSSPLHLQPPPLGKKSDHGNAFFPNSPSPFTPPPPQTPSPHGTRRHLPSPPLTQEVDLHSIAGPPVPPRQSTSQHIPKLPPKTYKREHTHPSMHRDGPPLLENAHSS

IC50, < 1000 nM:
C[C@@H](NC(=O)c1nn(-c2ccccc2F)c(=O)c2sccc12)c1cc(N)cc(C(F)(F)F)c1 [Example 312, N-[(1R)-1-[3-amino-5-(trifluoromethyl)phenyl]ethyl]-6-(2-fluorophenyl)-7-oxo-thieno[2,3-d]pyridazine-4-carboxamide]
CC(=O)Nc1cc(=O)n(-c2ccccc2)nc1C(=O)N[C@H](C)c1cc(N)cc(C(F)(F)F)c1 [Example 313, 4-acetamido-N-[(1R)-1-[3-amino-5-(trifluoromethyl)phenyl]ethyl]-6-oxo-1-phenyl-pyridazine-3-carboxamide]
C[C@@H](NC(=O)c1nn(-c2ccccc2F)c(=O)c2cc[nH]c12)c1cccc(C(F)(F)CO)c1F [Example 314, N-[(1R)-1-[3-(1,1-difluoro-2-hydroxy-ethyl)-2-fluoro-phenyl]ethyl]-5-(2-fluorophenyl)-4-oxo-1H-pyrrolo[2,3-d]pyridazine-7-carboxamide]
C[C@@H](NC(=O)c1nn(-c2cnn(C)c2)c(=O)c2ccsc12)c1cc(N)cc(C(F)(F)F)c1 [Example 316, N-[(1R)-1-[3-amino-5-(trifluoromethyl)phenyl]ethyl]-5-(1-methylpyrazol-4-yl)-4-oxo-thieno[2,3-d]pyridazine-7-carboxamide]
C[C@@H](NC(=O)c1nn(-c2ccccc2)c(=O)c2ccsc12)c1cc(N)cc(C(F)(F)F)c1 [Example 317, N-[(1R)-1-[3-amino-5-(trifluoromethyl)phenyl]ethyl]-4-oxo-5-phenyl-thieno[2,3-d]pyridazine-7-carboxamide]
C[C@@H](NC(=O)c1ccc(=O)n(-c2cccc(-c3ncnn3C)c2)c1)c1cc(N)cc(C(F)(F)F)c1 [Example 318, N-[(1R)-1-[3-amino-5-(trifluoromethyl)phenyl]ethyl]-1-[3-(2-methyl-1,2,4-triazol-3-yl)phenyl]-6-oxo-pyridine-3-carboxamide]
Cc1nnc(-c2cccc(-n3nc(C(=O)N[C@H](C)c4cc(N)cc(C(F)(F)F)c4)ccc3=O)c2)o1 [Example 319, N-[(1R)-1-[3-amino-5-(trifluoromethyl)phenyl]ethyl]-1-[3-(5-methyl-1,3,4-oxadiazol-2-yl)phenyl]-6-oxo-pyridazine-3-carboxamide]
C[C@@H](NC(=O)c1ccc(=O)n(-c2cccc(-c3cncn3C)c2)n1)c1cc(N)cc(C(F)(F)F)c1 [Example 320, N-[(1R)-1-[3-amino-5-(trifluoromethyl)phenyl]ethyl]-1-[3-(3-methylimidazol-4-yl)phenyl]-6-oxo-pyridazine-3-carboxamide]
C[C@@H](NC(=O)c1ccc(=O)n(-c2cccc(-c3ccnn3C)c2)c1)c1cc(N)cc(C(F)(F)F)c1 [Example 321, N-[(1R)-1-[3-amino-5-(trifluoromethyl)phenyl]ethyl]-1-[3-(2-methylpyrazol-3-yl)phenyl]-6-oxo-pyridine-3-carboxamide]
C[C@@H](NC(=O)c1ccc(=O)n(-c2cccc(-c3ncn(C)n3)c2)n1)c1cc(N)cc(C(F)(F)F)c1 [Example 323, N-[(1R)-1-[3-amino-5-(trifluoromethyl)phenyl]ethyl]-1-[3-(1-methyl-1,2,4-triazol-3-yl)phenyl]-6-oxo-pyridazine-3-carboxamide]
Cc1ncccc1-c1cccc(-n2nc(C(=O)N[C@H](C)c3cc(N)cc(C(F)(F)F)c3)ccc2=O)c1 [Example 324, N-[(1R)-1-[3-amino-5-(trifluoromethyl)phenyl]ethyl]-1-[3-(2-methyl-3-pyridyl)phenyl]-6-oxo-pyridazine-3-carboxamide]
C[C@@H](NC(=O)c1ccc(=O)n(-c2cccc(-c3ccccn3)c2)n1)c1cc(N)cc(C(F)(F)F)c1 [Example 325, N-[(1R)-1-[3-amino-5-(trifluoromethyl)phenyl]ethyl]-6-oxo-1-[3-(2-pyridyl)phenyl]pyridazine-3-carboxamide]
C[C@@H](NC(=O)c1ccc(=O)n(-c2cccc(-c3cnnn3C)c2)c1)c1cc(N)cc(C(F)(F)F)c1 [Example 326, N-[(1R)-1-[3-amino-5-(trifluoromethyl)phenyl]ethyl]-1-[3-(3-methyltriazol-4-yl)phenyl]-6-oxo-pyridine-3-carboxamide]
CCn1nncc1-c1cccc(-n2nc(C(=O)N[C@H](C)c3cc(N)cc(C(F)(F)F)c3)ccc2=O)c1 [Example 327, N-[(1R)-1-[3-amino-5-(trifluoromethyl)phenyl]ethyl]-1-[3-(3-ethyltriazol-4-yl)phenyl]-6-oxo-pyridazine-3-carboxamide]
C[C@@H](NC(=O)c1ccc(=O)n(-c2cccc(-c3ncnn3C)c2)n1)c1cc(N)cc(C(F)(F)F)c1 [Example 328, N-[(1R)-1-[3-amino-5-(trifluoromethyl)phenyl]ethyl]-1-[3-(2-methyl-1,2,4-triazol-3-yl)phenyl]-6-oxo-pyridazine-3-carboxamide]
C[C@@H](NC(=O)c1ccc(=O)n(-c2cccc(-c3ccn[nH]3)c2)n1)c1cc(N)cc(C(F)(F)F)c1 [Example 329, N-[(1R)-1-[3-amino-5-(trifluoromethyl)phenyl]ethyl]-6-oxo-1-[3-(1H-pyrazol-5-yl)phenyl]pyridazine-3-carboxamide]
C[C@@H](NC(=O)c1ccc(=O)n(-c2cccc(-c3ccn(C)n3)c2)n1)c1cccc(C(F)(F)CO)c1F [Example 330, N-[(1R)-1-[3-(1,1-difluoro-2-hydroxy-ethyl)-2-fluoro-phenyl]ethyl]-1-[3-(1-methylpyrazol-3-yl)phenyl]-6-oxo-pyridazine-3-carboxamide]
C[C@@H](NC(=O)c1ccc(=O)n(-c2cccc(-c3ccn(C)n3)c2)n1)c1cc(N)cc(C(F)(F)F)c1 [Example 331, N-[(1R)-1-[3-amino-5-(trifluoromethyl)phenyl]ethyl]-1-[3-(1-methylpyrazol-3-yl)phenyl]-6-oxo-pyridazine-3-carboxamide]
C[C@@H](NC(=O)c1ccc(=O)n(-c2cccc(-c3ccnn3C)c2)n1)c1cccc(C(F)(F)CO)c1F [Example 332, N-[(1R)-1-[3-(1,1-difluoro-2-hydroxy-ethyl)-2-fluoro-phenyl]ethyl]-1-[3-(2-methylpyrazol-3-yl)phenyl]-6-oxo-pyridazine-3-carboxamide]
C[C@@H](NC(=O)c1ccc(=O)n(-c2cccc(-c3ccnn3C)c2)n1)c1cc(N)cc(C(F)(F)F)c1 [Example 333, N-[(1R)-1-[3-amino-5-(trifluoromethyl)phenyl]ethyl]-1-[3-(2-methylpyrazol-3-yl)phenyl]-6-oxo-pyridazine-3-carboxamide]
C[C@@H](NC(=O)c1ccc(=O)n(-c2cccc(-c3cnn(C)c3)c2)n1)c1cc(N)cc(C(F)(F)F)c1 [Example 334, N-[(1R)-1-[3-amino-5-(trifluoromethyl)phenyl]ethyl]-1-[3-(1-methylpyrazol-4-yl)phenyl]-6-oxo-pyridazine-3-carboxamide]
